Results: ChEMBL document CHEMBL1201862, “PubChem BioAssay data set” (2004)
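Method: 48-hour compound exposure of cells in 96-well plates, five concentrations, linear interpolation of endpoints. GI50 = concentration required for 50% inhibition of growth.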 The source made the active and inactive calls. Rule as the data show it: active = GI50 up to about 1.1 µM and inactive = higher.

Experiments:
Assay in all cases: NCI anticancer screen, dose series, 48 h
[1] = system: OVCAR-3
[2] = system: NCI-H23
[3] = system: COLO 205
[4] = system: SK-MEL-2
[5] = system: M19-MEL
[6] = system: CAKI-1
[7] = system: HCT-15
[8] = system: SK-MEL-5
[9] = system: UACC-62
[10] = system: SF-268
[11] = system: LOX IMVI
[12] = system: A549
[13] = system: SK-MEL-28
[14] = system: HCC 2998
[15] = system: RPMI-8226
[16] = system: U-251

For `O=C(O)C1=C(Cl)c2ccccc2S1(=O)=O`, the GI50 [1] was > 10 µM (inactive), the GI50 [2] was > 100 µM (inactive) and the GI50 [3] was > 100 µM (inactive). For the same compound, the GI50 [4] was > 100 µM (inactive), the GI50 [5] was > 100 µM (inactive) and the GI50 [6] was > 100 µM (inactive). For the same compound, the GI50 [7] was > 100 µM, the GI50 [8] was > 100 µM (inactive) and the GI50 [9] was > 100 µM (inactive). For the same compound, the GI50 [10] was > 100 µM (inactive), the GI50 [11] was > 100 µM (inactive) and the GI50 [12] was > 100 µM (inactive). For the same compound, the GI50 [13] was > 100 µM (inactive), the GI50 [14] was > 100 µM (inactive) and the GI50 [15] was > 100 µM (inactive).
For `COc1cc2c(c(O)c1C)C(=O)CC(c1ccccc1)O2` (stereo not given), the GI50 [1] was 48.1 µM (inactive), the GI50 [2] was 22.4 µM (inactive) and the GI50 [4] was 24.9 µM (inactive). For the same compound, the GI50 [16] was 56.4 µM (inactive), the GI50 [5] was 45.8 µM (inactive) and the GI50 [6] was 94.8 µM (inactive). The GI50 [7] was 66.4 µM, the GI50 [8] was 18.2 µM (inactive) and the GI50 [9] was 47.9 µM (inactive). For the same compound, the GI50 [10] was > 100 µM (inactive), the GI50 [11] was > 10 µM (inactive) and the GI50 [12] was 56.6 µM (inactive). For the same compound, the GI50 [13] was > 100 µM (inactive) and the GI50 [14] was 79.8 µM (inactive).
`CC(C)(C)c1cc([Si](C)(C)C)c(C#N)c([Si](C)(C)C)c1` was tested, and the GI50 [1] was > 100 µM (inactive), the GI50 [2] was 76.9 µM (inactive) and the GI50 [3] was 51.3 µM (inactive). For the same compound, the GI50 [4] was > 100 µM (inactive), the GI50 [16] was 36.1 µM (inactive) and the GI50 [5] was 43.2 µM (inactive). The GI50 [6] was > 100 µM (inactive), the GI50 [7] was > 100 µM and the GI50 [9] was 60.5 µM (inactive). For the same compound, the GI50 [10] was 41.7 µM (inactive), the GI50 [11] was 78.5 µM (inactive) and the GI50 [12] was 65.5 µM (inactive). For the same compound, the GI50 [13] was > 100 µM (inactive) and the GI50 [14] was 90.6 µM (inactive).
With `Cc1ccc(Cn2c(C)nc3c2C(=O)c2ccccc2C3=O)cc1` the GI50 [1] was 10.6 µM (inactive), the GI50 [2] was 5.21 µM (inactive) and the GI50 [3] was 15.8 µM (inactive). The GI50 [4] was 15.3 µM (inactive), the GI50 [16] was 1.88 µM (inactive) and the GI50 [5] was 7.05 µM (inactive). The GI50 [7] was 0.619 µM, the GI50 [8] was 4.52 µM (inactive) and the GI50 [9] was 1.12 µM (inactive). The GI50 [10] was 3.43 µM (inactive), the GI50 [11] was 0.597 µM (active) and the GI50 [12] was 4.63 µM (inactive). The GI50 [13] was 23.5 µM (inactive) and the GI50 [14] was 17.6 µM (inactive).
For `COc1cc(Nc2nc3ccccc3nc2-c2cccs2)cc(OC)c1OC`, the GI50 [1] was 43.8 µM (inactive), the GI50 [2] was 50.6 µM (inactive) and the GI50 [3] was > 10 µM (inactive). The GI50 [4] was 85.3 µM (inactive), the GI50 [16] was > 10 µM (inactive) and the GI50 [5] was 40.5 µM (inactive). For the same compound, the GI50 [7] was 19 µM, the GI50 [9] was 36.2 µM (inactive) and the GI50 [10] was 25.8 µM (inactive). For the same compound, the GI50 [11] was 45.6 µM (inactive), the GI50 [12] was 21 µM (inactive) and the GI50 [13] was 52.1 µM (inactive). The GI50 [14] was 36.4 µM (inactive) and the GI50 [15] was 26.9 µM (inactive).
`CN(C(=O)c1ccc([N+](=O)[O-])cc1)c1ccccc1` was tested, and the GI50 [1] was > 100 µM (inactive), the GI50 [2] was > 100 µM (inactive) and the GI50 [3] was > 100 µM (inactive). For the same compound, the GI50 [16] was > 100 µM (inactive), the GI50 [5] was > 100 µM (inactive) and the GI50 [6] was > 100 µM (inactive). The GI50 [7] was > 100 µM, the GI50 [9] was > 10 µM (inactive) and the GI50 [10] was > 100 µM (inactive). The GI50 [11] was > 100 µM (inactive), the GI50 [12] was > 100 µM (inactive) and the GI50 [13] was > 100 µM (inactive). The GI50 [14] was > 100 µM (inactive) and the GI50 [15] was > 100 µM (inactive).
For `CN(Cc1ccccc1)C1(N(C)Cc2ccccc2)CC1`, the GI50 [1] was > 100 µM (inactive), the GI50 [2] was > 100 µM (inactive) and the GI50 [3] was > 100 µM (inactive). The GI50 [4] was > 100 µM (inactive), the GI50 [16] was > 100 µM (inactive) and the GI50 [5] was > 100 µM (inactive). The GI50 [6] was > 100 µM (inactive), the GI50 [7] was > 100 µM and the GI50 [8] was > 100 µM (inactive). The GI50 [9] was > 100 µM (inactive), the GI50 [10] was > 100 µM (inactive) and the GI50 [11] was > 100 µM (inactive). The GI50 [12] was > 100 µM (inactive), the GI50 [13] was > 100 µM (inactive) and the GI50 [14] was > 100 µM (inactive).
